Assay results from patent US20030181436A1, “Treatment for AIDS, HIV, and other related diseases and compounds for use therewith” (priority 2001, published 2003).

Assays:
Format in all cases: cell-based
[1] = system: TNFα induced U1 cells (HIV IIIB provirus); experiment: U1 latent infection assay, supernatant reverse transcriptase activity; details: for % VC / RT ACTIVITY (cpm) MEAN: exp 2; for RT VALUES (cpm) MEAN / X VC: exp 1
Protocol: (§1) U1 and ACH-2 cells were obtained from the AIDS Research and Reference Reagent Program and maintained under standard culture conditions in RPMI 1640 supplemented with 10% fetal bovine serum (heat inactivated), supplemented with 2 mM […], 100U/ml penicillin and 100 μg/ml, streptomycin. U1 cells were derived from the histocytic leukemia cell line U937, and contain a single integrated copy (HIV IIIB) […] a cytokine and/or phorbol inducible provirus. ACH-2 cells are derived from the A3.01 T lymphoblastic cell line, and contain 2 copies of the HIV IIIB provirus, however only one is cytokine and/or phorbol inducible. Cultures were maintained in such a way as to ensure exponential growth of the populations. At the time of the assay, cells were collected by centrifugation and counted by hemacytometer. If cell viability by Trypan Blue dye exclusion was less than 70% the assay was terminated. The cells were adjusted to 5×10^4 cells/mL and 100 μL, placed in 96 well plates with 100 μL media containing a final concentration of […] TNFα and the test compound. Cultures were incubated for 3 days and supernatants harvested. Compound toxicity was determined by MTS dye reduction. Virus expression was measured by supernatant reverse transcriptasc activity.
(§2) Reverse transcriptase activity was measured in cell-free supernatants. Tritiated thymidine triphosphate (NEN) (TTP) was resuspended in distilled H2O at 5 Ci/mL. Poly rA and oligo dT were prepared as a stock solution which was kept at −20° C. The RT reaction buffer was prepared fresh on a daily basis and consists of 125 μL 1.0 M EGTA, 125 μL dH2O, 110 μL 10% SDS, 50 μL 1.0 M Tris (pH 7.4), 50 μL, 1.0 M DTT, and 40 μL 1.0 M MgCl2. These three solutions were mixed together in a ratio of 2 parts TTP, 1 part poly rA:oligo dT, and 1 part reaction buffer. Ten microliters of this reaction mixture was placed in a round bottom microtiter plate and 15 μL of virus containing supernatant was added and mixed. The plate was incubated at 37° C. in a water bath with a solid support to prevent submersion of the plate and incubated for 60 minutes. Following reaction, the reaction volume was spotted onto pieces of DE81 paper, washed 5 times for 5 minutes each in a 5% sodium phosphate buffer, 2 times for 1 minute each in distilled water, 2 times for 1 minute each in 70% ethanol, and then dried. Opti-Fluor O was added to each sample and incorporated radioactivity was quantitated utilizing a Wallac 1450 Microbetaplus liquid scintillation counter.

ACH-2 cells = experiment: ACH-2 assay, compound toxicity by MTS dye reduction; design: Y. CC / 9′. CC: unit not given here
Protocol: At assay termination the assay plates were stained with the soluble tetrazolium-based dye MTS (CellTiter® Reagent, Promega) to determined cell viability and quantify compound toxicity. […] At termination of the assay 20 μL of MTS reagent was added per well. The wells were incubated for 4 h at 37° C., 5% CO2. Adhesive plate scalers were used in place of the lids, the sealed plate was inverted several times to mix the soluble formazan product and the plate was read spectrophotometrically at 490 nm with a 650 nm reference wavelength on a Molecular Devices Vmax plate reader.
as §1

[2] = system: HIV RoJo (a clinical isolate); experiment: Chronically infected PBMCs, supernatant reverse transcriptase activity
Protocol: as §2
In these studies PBMCs are infected with HIV RoJo (a clinical isolate) and a dynamic population of infected PBMCs established over a period of 2 to 3 weeks. This population of infected PBMCs was established and maintained by the addition of fresh PBMCs in a 1:1 ratio every 7 days, thus overcoming the lost of PBMCs to normal cell death processes. Thus a population of cells was established that consisted of uninfected cells, short lived infected cells and long lived infected cells. In experiments where AZT was added to prevent re-infection of the population, we typically saw a 50% reduction in infection following a 7 day treatment. This means that 50% of the virus production from the infected […] population was due re-infection. […] Thus there was a population of infected PBMCs present ([…] of the total) which survived for extended periods of time and thus met the definition of being chronically infected.

Zinc Iodiscorbate [Compound Z]
activity in the U1 assay [1]: inactive
% VC ([1]; 0.00063 ug/ml): 110.1%
% VC ([1]; 0.002 ug/ml): 105.4%
RT ACTIVITY (cpm) MEAN ([1]; 0.002 ug/ml): 3245 cpm
% VC ([1]; 0.00625 ug/ml): 99.9%
RT ACTIVITY (cpm) MEAN ([1]; 0.00625 ug/ml): 3077 cpm
% VC ([1]; 0.02 ug/ml): 94.2%
RT ACTIVITY (cpm) MEAN ([1]; 0.02 ug/ml): 2902 cpm
% VC ([1]; 0.0625 ug/ml): 93.9%
RT ACTIVITY (cpm) MEAN ([1]; 0.0625 ug/ml): 2891 cpm
% VC ([1]; 0.2 ug/ml): 101.2%
RT ACTIVITY (cpm) MEAN ([1]; 0.2 ug/ml): 3115 cpm
RT VALUES (cpm) MEAN ([1]; 0.625 ug/ml): 2504.7 cpm
X VC ([1]; 0.625 ug/ml): 106.3
% VC ([1]; 0.625 ug/ml): 64.4%
RT ACTIVITY (cpm) MEAN ([1]; 0.625 ug/ml): 1984 cpm
RT VALUES (cpm) MEAN ([1]; 2 ug/ml): 2492.7 cpm
X VC ([1]; 2 ug/ml): 105.8
% VC ([1]; 2 ug/ml): 59.7%
RT ACTIVITY (cpm) MEAN ([1]; 2 ug/ml): 1838 cpm
RT VALUES (cpm) MEAN ([1]; 6.25 ug/ml): 2813.0 cpm
X VC ([1]; 6.25 ug/ml): 119.4
% VC ([1]; 6.25 ug/ml): 66.9%
RT ACTIVITY (cpm) MEAN ([1]; 6.25 ug/ml): 2059 cpm
RT VALUES (cpm) MEAN ([1]; 20 ug/ml): 2385.7 cpm
X VC ([1]; 20 ug/ml): 101.2
% VC ([1]; 20 ug/ml): 63.2%
RT ACTIVITY (cpm) MEAN ([1]; 20 ug/ml): 1947 cpm
RT VALUES (cpm) MEAN ([1]; 62.5 ug/ml): 2253.7 cpm
X VC ([1]; 62.5 ug/ml): 95.6
% VC ([1]; 62.5 ug/ml): 39.78%
RT ACTIVITY (cpm) MEAN ([1]; 62.5 ug/ml): 1225 cpm
RT VALUES (cpm) MEAN ([1]; 200 ug/ml): 802.7 cpm
X VC ([1]; 200 ug/ml): 34.1
% VC ([1]; 200 ug/ml): 30.84%
RT ACTIVITY (cpm) MEAN ([1]; 200 ug/ml): 950 cpm
IC50 ([1]; U1, exp 2, Table 8): IC50 (uglml) = 43.99
IC50 ([1]; U1, experiment 1, Table 1): 164 µg/mL
IC50 ([1]; U1, experiment 2, Table 1): 44 µg/mL
IC50 ([1]; U1/TNFα, exp 1, Table 3): IC50 (ug/ml) = ..164.40
U1 EC50 ([1]; exp 2, Table 4): 44.0 µg/mL
TOXICITY VALUES (MTS) MEAN (ACH-2 cells; 0.00063 μg/ml, exp 2): 0.975 O, p.
TOXICITY VALUES (MTS) MEAN (ACH-2 cells; 0.002 μg/ml, exp 2): 0.929 O, p.
TOXICITY VALUES (MTS) MEAN (ACH-2 cells; 0.00626 μg/ml, exp 2): 0.961 O, p.
9′. CC (ACH-2 cells; 0.02 μg/ml, exp 2): 101.1
TOXICITY VALUES (MTS) MEAN (ACH-2 cells; 0.02 μg/ml, exp 2): 1.006 O, p.
TOXICITY VALUES (MTS) MEAN (ACH-2 cells; 0.0625 μg/ml, exp 2): 0.894 O, p.
9′. CC (ACH-2 cells; 0.2 μg/ml, exp 2): 81.0
TOXICITY VALUES (MTS) MEAN (ACH-2 cells; 0.2 μg/ml, exp 2): 0.807 O, p.
9′. CC (ACH-2 cells; 0.625 μg/ml, exp 2): 72.2
TOXICITY VALUES (MTS) MEAN (ACH-2 cells; 0.625 μg/ml, exp 2): 0.718 O, p.
9′. CC (ACH-2 cells; 2 μg/ml, exp 2): 70.0
TOXICITY VALUES (MTS) MEAN (ACH-2 cells; 2 μg/ml, exp 2): 0.696 O, p.
9′. CC (ACH-2 cells; 6.25 μg/ml, exp 2): 40.1
TOXICITY VALUES (MTS) MEAN (ACH-2 cells; 6.25 μg/ml, exp 2): 0.399 O, p.
9′. CC (ACH-2 cells; 20 μg/ml, exp 2): 0.0
TOXICITY VALUES (MTS) MEAN (ACH-2 cells; 20 μg/ml, exp 2): 0.000 O, p.
9′. CC (ACH-2 cells; 62.5 μg/ml, exp 2): 0.0
TOXICITY VALUES (MTS) MEAN (ACH-2 cells; 62.5 μg/ml, exp 2): 0.000 O, p.
9′. CC (ACH-2 cells; 200 μg/ml, exp 2): 0.0
TOXICITY VALUES (MTS) MEAN (ACH-2 cells; 200 μg/ml, exp 2): 0.000 O, p.
TOXICITY VALUES (MTS) MEAN (ACH-2 cells; 0.00063 μG/Ml, exp 1): 1.061 O. D.
TOXICITY VALUES (MTS) MEAN (ACH-2 cells; 0.002 μG/Ml [c9], exp 1): 1.049 O. D.
TOXICITY VALUES (MTS) MEAN (ACH-2 cells; 0.002 μG/Ml [c11], exp 1): 1.081 O. D.
TOXICITY VALUES (MTS) MEAN (ACH-2 cells; 0.00625 μG/Ml, exp 1): 1.019 O. D.
TOXICITY VALUES (MTS) MEAN (ACH-2 cells; 0.0625 μG/Ml, exp 1): 0.984 O. D.
TOXICITY VALUES (MTS) MEAN (ACH-2 cells; 0.2 μG/Ml, exp 1): 1.002 O. D.
TOXICITY VALUES (MTS) MEAN (ACH-2 cells; 0.625 μG/Ml, exp 1): 0.939 O. D.
% CC (ACH-2 cells; 2 μG/Ml, exp 1): 88.1%
TOXICITY VALUES (MTS) MEAN (ACH-2 cells; 2 μG/Ml, exp 1): 0.885 O. D.
% CC (ACH-2 cells; 6.25 μG/Ml, exp 1): 81.8%
TOXICITY VALUES (MTS) MEAN (ACH-2 cells; 6.25 μG/Ml, exp 1): 0.822 O. D.
% CC (ACH-2 cells; 20 μG/Ml, exp 1): 85.1%
TOXICITY VALUES (MTS) MEAN (ACH-2 cells; 20 μG/Ml, exp 1): 0.856 O. D.
% CC (ACH-2 cells; 62.5 μG/Ml, exp 1): 6.3%
TOXICITY VALUES (MTS) MEAN (ACH-2 cells; 62.5 μG/Ml, exp 1): 0.063 O. D.
% CC (ACH-2 cells; 200 μG/Ml, exp 1): 1.3%
TOXICITY VALUES (MTS) MEAN (ACH-2 cells; 200 μG/Ml, exp 1): 0.013 O. D.
TC50 (ACH-2 cells; ACH2, exp 1, Table 2): ITC50 (μG/Ml) = 38.94
TC50 (ACH-2 cells; ACH-2, experiment 1, Table 1): 39
TC50 (ACH-2 cells; ACH-2, experiment 2, Table 1): 4.8
ACH2 TC50 (ACH-2 cells; exp 2): 4.8 µg/mL
ACH2 TC50 (ACH-2 cells; exp 2, listed as COMPOUND Z): TC50 (vg/mol) = 4.84 μg/ml
IC50 in chronically infected PBMCs ([2]; 21 days): approximately 30 μg/ml
Percent Control by Supernatant Reverse Transcriptase activity ([2]; Day 7, 1 μg/ml): 256 Percent Control
Percent Control by Supernatant Reverse Transcriptase activity ([2]; Day 7, 5 μg/ml): 303 Percent Control
Percent Control by Supernatant Reverse Transcriptase activity ([2]; Day 7, 10 μg/ml): 230 Percent Control
Percent Control by Supernatant Reverse Transcriptase activity ([2]; Day 7, 25 μg/ml): 217 Percent Control
Percent Control by Supernatant Reverse Transcriptase activity ([2]; Day 7, 50 μg/ml): 229 Percent Control
Percent Control by Supernatant Reverse Transcriptase activity ([2]; Day 7, 100 μg/ml): 167 Percent Control
Percent Control by Supernatant Reverse Transcriptase activity ([2]; Day 14, 1 μg/ml): 63 Percent Control
Percent Control by Supernatant Reverse Transcriptase activity ([2]; Day 14, 5 μg/ml): 87 Percent Control
Percent Control by Supernatant Reverse Transcriptase activity ([2]; Day 14, 10 μg/ml): 69 Percent Control
Percent Control by Supernatant Reverse Transcriptase activity ([2]; Day 14, 25 μg/ml): 74 Percent Control
Percent Control by Supernatant Reverse Transcriptase activity ([2]; Day 14, 50 μg/ml): 67 Percent Control
Percent Control by Supernatant Reverse Transcriptase activity ([2]; Day 14, 100 μg/ml): 49 Percent Control
Percent Control by Supernatant Reverse Transcriptase activity ([2]; da 21, 1 μg/ml): 80 Percent Control
Percent Control by Supernatant Reverse Transcriptase activity ([2]; da 21, 5 μg/ml): 70 Percent Control
Percent Control by Supernatant Reverse Transcriptase activity ([2]; da 21, 10 μg/ml): 56 Percent Control
Percent Control by Supernatant Reverse Transcriptase activity ([2]; da 21, 25 μg/ml): 60 Percent Control
Percent Control by Supernatant Reverse Transcriptase activity ([2]; da 21, 50 μg/ml): 48 Percent Control
Percent Control by Supernatant Reverse Transcriptase activity ([2]; da 21, 100 μg/ml): 22 Percent Control
